In ChEMBL document CHEMBL5465560, “Selectivity Literature for EUbOPEN Chemogenomic Library” (2024) one finds % of control and dTM data, which are given here for 5 molecules.

Assay [1] has as its target Casein kinase I isoform gamma-2 (Homo sapiens) (UniProt P78368). Description: Selectivity interaction (Kinase panel (Z-LYTE Assay)) EUB0001632a CSNK1G2. Particulars: at 10 µM.
The target of assay [2] is Platelet-derived growth factor receptor beta (Homo sapiens, UniProt P09619). Description: Selectivity interaction (Ambit KINOMEscan and KiNATiv profiling in Jurkat cells) EUB0000090b PDGFRB. Particulars: at 1 µM. Type of assay: cell-based.
Platelet-derived growth factor receptor beta, sequence (P09619 whole entry): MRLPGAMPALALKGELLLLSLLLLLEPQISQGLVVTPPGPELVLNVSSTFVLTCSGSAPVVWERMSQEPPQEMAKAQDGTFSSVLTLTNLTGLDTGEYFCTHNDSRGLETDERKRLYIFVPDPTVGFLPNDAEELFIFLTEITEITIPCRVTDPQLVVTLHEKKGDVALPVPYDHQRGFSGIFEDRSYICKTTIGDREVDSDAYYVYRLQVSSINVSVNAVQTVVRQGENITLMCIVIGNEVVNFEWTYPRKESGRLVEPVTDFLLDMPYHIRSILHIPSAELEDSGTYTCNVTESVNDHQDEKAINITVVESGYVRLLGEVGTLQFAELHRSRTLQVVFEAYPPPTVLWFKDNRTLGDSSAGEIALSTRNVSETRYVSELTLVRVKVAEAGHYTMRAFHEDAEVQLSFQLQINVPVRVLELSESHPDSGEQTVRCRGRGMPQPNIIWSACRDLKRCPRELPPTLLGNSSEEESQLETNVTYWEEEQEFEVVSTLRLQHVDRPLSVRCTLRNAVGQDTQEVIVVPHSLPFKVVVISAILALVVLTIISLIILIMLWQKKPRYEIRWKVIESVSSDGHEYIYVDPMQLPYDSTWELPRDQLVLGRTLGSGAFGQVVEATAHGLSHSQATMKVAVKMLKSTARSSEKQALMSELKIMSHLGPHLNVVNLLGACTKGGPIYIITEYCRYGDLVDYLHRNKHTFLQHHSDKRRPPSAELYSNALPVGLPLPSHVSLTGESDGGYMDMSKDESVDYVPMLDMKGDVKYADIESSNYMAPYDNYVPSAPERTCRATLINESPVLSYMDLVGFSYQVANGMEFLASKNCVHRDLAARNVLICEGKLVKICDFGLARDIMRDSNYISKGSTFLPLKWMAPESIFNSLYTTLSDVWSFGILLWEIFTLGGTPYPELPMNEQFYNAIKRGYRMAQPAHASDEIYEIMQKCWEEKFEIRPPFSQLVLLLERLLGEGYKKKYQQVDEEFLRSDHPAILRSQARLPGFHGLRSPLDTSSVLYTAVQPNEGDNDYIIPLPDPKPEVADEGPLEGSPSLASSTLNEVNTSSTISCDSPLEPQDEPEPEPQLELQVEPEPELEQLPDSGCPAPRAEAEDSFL
In assay [3] the target is T1, Serine/threonine-protein kinase D1 (Homo sapiens) (UniProt Q15139).
T1 sequence (whole entry): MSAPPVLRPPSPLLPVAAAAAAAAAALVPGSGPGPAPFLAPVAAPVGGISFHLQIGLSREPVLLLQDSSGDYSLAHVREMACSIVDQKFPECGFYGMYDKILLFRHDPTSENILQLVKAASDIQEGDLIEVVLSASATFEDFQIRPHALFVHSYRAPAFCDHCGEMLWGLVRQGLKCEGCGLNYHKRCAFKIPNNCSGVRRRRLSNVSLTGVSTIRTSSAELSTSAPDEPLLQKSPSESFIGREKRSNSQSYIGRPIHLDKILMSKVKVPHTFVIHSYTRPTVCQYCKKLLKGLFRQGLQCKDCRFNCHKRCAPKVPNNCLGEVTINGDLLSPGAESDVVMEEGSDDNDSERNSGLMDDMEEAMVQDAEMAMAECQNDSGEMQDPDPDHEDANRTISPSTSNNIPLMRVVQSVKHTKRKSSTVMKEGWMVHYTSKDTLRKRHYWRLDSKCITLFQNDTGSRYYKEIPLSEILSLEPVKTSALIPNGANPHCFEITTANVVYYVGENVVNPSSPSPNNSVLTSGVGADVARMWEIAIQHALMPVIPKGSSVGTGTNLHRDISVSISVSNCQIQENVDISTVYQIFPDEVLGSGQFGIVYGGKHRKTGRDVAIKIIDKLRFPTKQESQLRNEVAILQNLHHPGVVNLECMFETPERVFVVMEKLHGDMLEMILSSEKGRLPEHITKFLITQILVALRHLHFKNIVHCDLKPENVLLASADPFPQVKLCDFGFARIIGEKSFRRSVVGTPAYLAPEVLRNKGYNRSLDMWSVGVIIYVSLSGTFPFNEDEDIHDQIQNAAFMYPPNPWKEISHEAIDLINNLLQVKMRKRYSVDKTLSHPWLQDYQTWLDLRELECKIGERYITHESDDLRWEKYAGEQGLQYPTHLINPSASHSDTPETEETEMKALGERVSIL
Description: Selectivity interaction (KinomeScan (DiscoverX)) EUB0000666a PRKD1. Conditions: at 10 µM.

Assay [4] concerns the target T2, Mitogen-activated protein kinase kinase kinase 5 (Homo sapiens) (UniProt Q99683).
T2 sequence (whole entry): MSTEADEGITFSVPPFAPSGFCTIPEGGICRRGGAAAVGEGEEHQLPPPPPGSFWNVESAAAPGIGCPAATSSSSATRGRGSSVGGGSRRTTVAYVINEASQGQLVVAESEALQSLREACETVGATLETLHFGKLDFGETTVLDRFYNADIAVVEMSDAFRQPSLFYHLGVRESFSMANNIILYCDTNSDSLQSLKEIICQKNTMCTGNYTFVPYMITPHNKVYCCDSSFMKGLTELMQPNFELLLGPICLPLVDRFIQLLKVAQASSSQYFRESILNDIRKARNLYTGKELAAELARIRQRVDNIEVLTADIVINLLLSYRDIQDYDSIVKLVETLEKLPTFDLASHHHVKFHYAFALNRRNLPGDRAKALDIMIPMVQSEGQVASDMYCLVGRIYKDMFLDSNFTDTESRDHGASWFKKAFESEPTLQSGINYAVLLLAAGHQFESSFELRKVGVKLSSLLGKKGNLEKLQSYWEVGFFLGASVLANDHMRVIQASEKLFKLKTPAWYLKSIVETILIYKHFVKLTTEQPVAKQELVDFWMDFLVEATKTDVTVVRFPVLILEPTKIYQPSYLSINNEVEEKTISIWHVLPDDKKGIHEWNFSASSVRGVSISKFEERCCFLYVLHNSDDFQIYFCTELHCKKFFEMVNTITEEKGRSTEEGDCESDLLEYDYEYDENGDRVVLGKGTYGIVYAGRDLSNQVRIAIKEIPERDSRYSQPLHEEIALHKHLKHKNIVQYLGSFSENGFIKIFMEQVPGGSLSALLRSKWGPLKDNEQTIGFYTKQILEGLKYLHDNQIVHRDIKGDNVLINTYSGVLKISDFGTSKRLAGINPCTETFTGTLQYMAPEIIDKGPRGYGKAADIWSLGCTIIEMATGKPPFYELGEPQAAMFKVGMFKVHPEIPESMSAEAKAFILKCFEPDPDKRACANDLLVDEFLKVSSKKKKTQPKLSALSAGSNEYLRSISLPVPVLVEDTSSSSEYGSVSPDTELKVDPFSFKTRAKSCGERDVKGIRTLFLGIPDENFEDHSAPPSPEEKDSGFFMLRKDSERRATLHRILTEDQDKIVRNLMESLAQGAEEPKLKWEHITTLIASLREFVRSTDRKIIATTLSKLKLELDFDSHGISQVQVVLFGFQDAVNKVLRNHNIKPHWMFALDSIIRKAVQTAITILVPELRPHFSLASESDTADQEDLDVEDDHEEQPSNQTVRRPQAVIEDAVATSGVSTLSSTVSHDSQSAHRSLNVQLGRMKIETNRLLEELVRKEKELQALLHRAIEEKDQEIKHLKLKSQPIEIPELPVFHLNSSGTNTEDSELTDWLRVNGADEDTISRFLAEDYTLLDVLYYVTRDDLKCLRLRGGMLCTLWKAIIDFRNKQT
Description: Selectivity interaction (Kinase panel (DSF assay)) EUB0001489b MAP3K5. (In DSF a fluorescence change marks the thermal transition of the protein.)

Assay [5] addresses Proto-oncogene tyrosine-protein kinase Src (Homo sapiens, UniProt P12931). Description: Selectivity interaction (KinomeScan (DiscoverX)) EUB0000092b SRC. Conditions: at 10 µM.

Proto-oncogene tyrosine-protein kinase Src, sequence (P12931 2-536 limits assumed): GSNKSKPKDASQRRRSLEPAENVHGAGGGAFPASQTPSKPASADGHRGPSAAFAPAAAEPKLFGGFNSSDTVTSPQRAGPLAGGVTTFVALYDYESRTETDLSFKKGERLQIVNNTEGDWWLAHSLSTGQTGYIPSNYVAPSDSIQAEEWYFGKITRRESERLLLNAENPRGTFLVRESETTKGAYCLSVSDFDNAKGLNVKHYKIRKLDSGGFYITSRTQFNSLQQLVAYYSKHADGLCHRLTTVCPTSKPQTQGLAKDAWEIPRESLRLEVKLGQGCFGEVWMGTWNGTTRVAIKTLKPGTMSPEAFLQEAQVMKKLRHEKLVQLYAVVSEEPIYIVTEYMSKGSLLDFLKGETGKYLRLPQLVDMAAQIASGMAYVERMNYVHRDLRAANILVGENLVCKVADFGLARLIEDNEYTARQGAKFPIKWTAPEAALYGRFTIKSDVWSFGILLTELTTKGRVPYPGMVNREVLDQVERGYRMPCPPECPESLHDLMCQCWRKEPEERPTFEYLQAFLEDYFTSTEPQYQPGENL
Casein kinase I isoform gamma-2 (Homo sapiens), sequence (P78368 whole entry, looked up, canonical isoform): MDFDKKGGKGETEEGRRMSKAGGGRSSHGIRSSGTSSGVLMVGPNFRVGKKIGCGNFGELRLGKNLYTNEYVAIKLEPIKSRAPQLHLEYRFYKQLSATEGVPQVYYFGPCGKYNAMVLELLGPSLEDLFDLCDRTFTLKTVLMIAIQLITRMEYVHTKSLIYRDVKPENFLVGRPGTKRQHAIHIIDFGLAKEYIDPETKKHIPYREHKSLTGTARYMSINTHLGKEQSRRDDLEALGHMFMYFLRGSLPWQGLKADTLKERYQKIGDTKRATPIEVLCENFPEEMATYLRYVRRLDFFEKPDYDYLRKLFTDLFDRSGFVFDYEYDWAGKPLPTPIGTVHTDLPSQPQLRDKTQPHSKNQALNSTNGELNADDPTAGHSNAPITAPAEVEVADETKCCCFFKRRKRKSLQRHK

The molecule `Cn1cc(-n2cnc3c(NCc4nc5cc(Cl)c(Cl)cc5[nH]4)nc(N4CCOCC4)nc32)cn1` had a % of control in assay [1] of 13.1%. Turning to `CN(C)C/C=C/C(=O)Nc1ccc(C(=O)N2CCCC(Nc3ncc(Cl)c(-c4c[nH]c5ccccc45)n3)C2)cc1` (stereo not given), in assay [2], the % of control came out at 76%. The molecule `O=C(NOC[C@H](O)CO)c1ccc(F)c(F)c1Nc1ccc(I)cc1F` yielded a % of control in assay [3] of 100%. Regarding `CN1CCN(C(=O)c2ccc3cc2OCCOCCNc2ccn4ncc-3c4n2)CC1`, the dTM in assay [4] was 3.2 K. For `CCC(=O)N1CCN(c2ccc(-n3c(=O)ccc4cnc5ccc(-c6cnc7ccccc7c6)cc5c43)cc2C(F)(F)F)CC1`, the % of control in assay [5] was determined as 95%.
